In ChEMBL document CHEMBL1201862, “PubChem BioAssay data set” (2004):
Calls of active or inactive are those of the source.

Legend:
Beta-galactosidase = Beta-galactosidase (Escherichia coli, UniProt Q8VNN2); test: PubChem AID 485352; type: functional
[1] = target: T1, Type-1 angiotensin II receptor (Homo sapiens, UniProt P30556); test: AT1 receptor antagonists, dose response, selectivity assay for APJ receptor antagonist project, cell-based, uHTS hits (AID 463214); type: functional;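 further: antagonist potency against angiotensin II stimulated AT1 response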
T1 sequence (P30556 whole entry): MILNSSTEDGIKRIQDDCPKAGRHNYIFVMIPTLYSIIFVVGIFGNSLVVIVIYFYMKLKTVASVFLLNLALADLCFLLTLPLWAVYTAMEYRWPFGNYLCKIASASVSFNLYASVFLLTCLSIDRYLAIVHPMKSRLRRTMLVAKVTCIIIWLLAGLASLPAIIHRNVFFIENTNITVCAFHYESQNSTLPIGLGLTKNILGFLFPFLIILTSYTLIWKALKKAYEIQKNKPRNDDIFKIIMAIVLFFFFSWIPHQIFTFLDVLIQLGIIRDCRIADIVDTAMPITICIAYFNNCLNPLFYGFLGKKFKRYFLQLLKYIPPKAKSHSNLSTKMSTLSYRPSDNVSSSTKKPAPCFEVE

[2] = target: T2, Short transient receptor potential channel 4 (Mus musculus, UniProt Q9QUQ5); test: mouse TRPC4 channel inhibitors, dose response, cell-based, HEK293 TRPC4/mu-opioid, Fluo-4 calcium (AID 434942); type: functional;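 further: potency of inhibitors blocking the TRPC4 calcium response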
T2 sequence (Q9QUQ5 whole entry): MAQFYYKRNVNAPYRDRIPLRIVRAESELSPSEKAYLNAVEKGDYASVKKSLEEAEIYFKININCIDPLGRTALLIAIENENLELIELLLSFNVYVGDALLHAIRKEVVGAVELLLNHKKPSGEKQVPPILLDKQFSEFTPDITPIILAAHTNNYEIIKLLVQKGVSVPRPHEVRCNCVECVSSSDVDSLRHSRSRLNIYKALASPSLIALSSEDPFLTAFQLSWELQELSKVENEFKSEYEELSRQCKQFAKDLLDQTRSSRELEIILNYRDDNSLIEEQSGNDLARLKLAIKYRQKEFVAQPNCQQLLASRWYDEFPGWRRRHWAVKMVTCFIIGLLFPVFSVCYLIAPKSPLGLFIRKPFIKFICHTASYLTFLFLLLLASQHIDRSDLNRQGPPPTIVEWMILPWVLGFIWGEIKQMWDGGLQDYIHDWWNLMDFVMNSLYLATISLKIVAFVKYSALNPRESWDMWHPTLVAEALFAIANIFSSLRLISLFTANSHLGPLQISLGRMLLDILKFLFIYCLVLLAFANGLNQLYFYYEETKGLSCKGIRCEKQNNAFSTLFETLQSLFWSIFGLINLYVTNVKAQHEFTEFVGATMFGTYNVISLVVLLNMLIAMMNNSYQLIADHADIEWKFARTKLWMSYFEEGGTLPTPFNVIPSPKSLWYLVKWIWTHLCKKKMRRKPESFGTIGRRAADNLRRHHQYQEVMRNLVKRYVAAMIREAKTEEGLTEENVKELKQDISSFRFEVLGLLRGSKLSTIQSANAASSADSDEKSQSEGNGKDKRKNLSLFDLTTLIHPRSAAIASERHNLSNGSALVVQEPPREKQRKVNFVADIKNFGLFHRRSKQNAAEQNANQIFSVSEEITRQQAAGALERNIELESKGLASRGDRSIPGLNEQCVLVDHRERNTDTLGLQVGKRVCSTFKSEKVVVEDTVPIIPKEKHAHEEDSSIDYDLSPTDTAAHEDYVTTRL

Phospholipase A2 = Phospholipase A2 (Homo sapiens, UniProt P04054); type: functional;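 further: confirmatory dose-response counterscreen on phospholipase A2, testing hits that came from an ultra-high-throughput screen for ATG4B inhibitors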
Sequence of Phospholipase A2 (P04054 whole entry): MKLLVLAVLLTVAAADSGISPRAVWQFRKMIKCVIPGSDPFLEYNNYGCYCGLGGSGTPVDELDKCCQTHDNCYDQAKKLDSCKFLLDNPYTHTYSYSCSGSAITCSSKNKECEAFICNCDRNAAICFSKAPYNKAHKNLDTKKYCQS

Cysteine protease ATG4B = Cysteine protease ATG4B (Homo sapiens, UniProt Q9Y4P1); type: functional;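 further: Fluorescence-based dose-response confirmation assay measuring inhibition of ATG4B activity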
Sequence of Cysteine protease ATG4B (Q9Y4P1 whole entry): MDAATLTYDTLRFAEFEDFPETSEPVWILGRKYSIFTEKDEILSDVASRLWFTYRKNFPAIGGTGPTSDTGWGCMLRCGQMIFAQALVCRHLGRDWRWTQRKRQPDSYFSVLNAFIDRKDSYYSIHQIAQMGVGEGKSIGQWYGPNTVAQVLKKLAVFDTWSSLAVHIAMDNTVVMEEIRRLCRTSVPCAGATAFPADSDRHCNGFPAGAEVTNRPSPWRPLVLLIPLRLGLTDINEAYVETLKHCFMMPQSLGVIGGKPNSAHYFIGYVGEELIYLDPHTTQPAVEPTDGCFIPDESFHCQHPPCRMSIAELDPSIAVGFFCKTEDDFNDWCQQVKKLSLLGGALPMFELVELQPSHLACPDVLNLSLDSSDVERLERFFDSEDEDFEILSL

A-375 = test: MITF: Counter assay: A375 proliferation Measured in Cell-Based System Using Plate Reader - 2084-03_Inhibitor_Dose_DryPowder_Activity. [Related pubchem assays (depositor defined):AID488944]; type: functional; conditions: Homo sapiens
[3] = target: T3, Microphthalmia-associated transcription factor (Homo sapiens, UniProt O75030); test: TRPM1 promoter luciferase signal decrease, dose response, MITF inhibitor project, cell-based, SK-MEL-5, cherry-picked, set 3 (AID 493073); type: functional
T3 sequence (O75030 whole entry): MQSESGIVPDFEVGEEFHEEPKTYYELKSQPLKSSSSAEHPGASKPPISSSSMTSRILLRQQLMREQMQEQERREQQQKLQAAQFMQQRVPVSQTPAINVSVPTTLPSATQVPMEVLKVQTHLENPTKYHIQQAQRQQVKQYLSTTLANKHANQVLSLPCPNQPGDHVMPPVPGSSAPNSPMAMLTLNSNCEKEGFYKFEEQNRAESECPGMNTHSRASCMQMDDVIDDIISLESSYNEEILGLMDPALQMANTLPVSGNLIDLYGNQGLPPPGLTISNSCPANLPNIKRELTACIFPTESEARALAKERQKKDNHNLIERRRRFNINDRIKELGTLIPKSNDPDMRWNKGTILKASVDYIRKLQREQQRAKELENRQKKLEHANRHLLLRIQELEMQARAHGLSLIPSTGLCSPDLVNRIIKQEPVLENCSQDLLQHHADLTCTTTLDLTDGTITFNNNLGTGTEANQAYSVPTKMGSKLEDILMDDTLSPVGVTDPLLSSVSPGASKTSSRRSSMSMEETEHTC

[4] = growth suppression of PTEN-null colon cells, dose response, cell-based, HCT116 PTEN knockout (AID 1047); type: functional;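 further: HCT116 colon tumor cells with PTEN knocked out; cells exposed to compound for 60 hours before readout; potency for loss of cell viability measured by luminescence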
[5] = growth suppression of beta-catenin-knockout colon cells, dose response, cell-based, HCT116, human colon tumor (AID 1045); type: functional;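 further: HCT116 colon tumor cells with beta catenin knocked out; cells exposed to compound for 60 hours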
[6] = target: Beta-2 adrenergic receptor (Homo sapiens, UniProt P07550); test: beta2AR agonists driving receptor internalization, dose response, cell-based, FAP fluorogen, flow cytometry, cherry pick 1 (AID 588763); type: functional
Sequence of Beta-2 adrenergic receptor (P07550 whole entry): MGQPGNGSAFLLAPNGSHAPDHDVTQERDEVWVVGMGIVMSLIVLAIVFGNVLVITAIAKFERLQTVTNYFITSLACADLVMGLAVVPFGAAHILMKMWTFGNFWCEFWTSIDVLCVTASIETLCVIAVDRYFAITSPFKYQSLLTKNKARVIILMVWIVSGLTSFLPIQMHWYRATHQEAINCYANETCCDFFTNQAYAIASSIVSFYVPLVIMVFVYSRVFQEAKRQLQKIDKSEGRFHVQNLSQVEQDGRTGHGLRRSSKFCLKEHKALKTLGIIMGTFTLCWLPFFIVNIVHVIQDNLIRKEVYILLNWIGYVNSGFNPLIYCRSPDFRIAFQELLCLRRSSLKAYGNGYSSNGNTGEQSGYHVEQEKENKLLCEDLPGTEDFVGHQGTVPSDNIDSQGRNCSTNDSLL

INS1 = test: beta cell apoptosis inhibitors, cytokine rescue, dose response, luminescence, retest (AID 449756); type: functional, cell-based; conditions: Rattus norvegicus;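 further: cell death triggered by IL-1 beta plus TNF-alpha plus IFN-gamma mixture; protective hits raise ATP signal compared with cytokine alone wells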
[7] = target: T4, Sentrin-specific protease 7 (Homo sapiens, UniProt Q9BQF6); type: functional;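 further: Luminescence-based dose-response confirmation of ultra-high-throughput screening hits, measuring inhibition of SENP7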
T4 sequence (Q9BQF6 whole entry): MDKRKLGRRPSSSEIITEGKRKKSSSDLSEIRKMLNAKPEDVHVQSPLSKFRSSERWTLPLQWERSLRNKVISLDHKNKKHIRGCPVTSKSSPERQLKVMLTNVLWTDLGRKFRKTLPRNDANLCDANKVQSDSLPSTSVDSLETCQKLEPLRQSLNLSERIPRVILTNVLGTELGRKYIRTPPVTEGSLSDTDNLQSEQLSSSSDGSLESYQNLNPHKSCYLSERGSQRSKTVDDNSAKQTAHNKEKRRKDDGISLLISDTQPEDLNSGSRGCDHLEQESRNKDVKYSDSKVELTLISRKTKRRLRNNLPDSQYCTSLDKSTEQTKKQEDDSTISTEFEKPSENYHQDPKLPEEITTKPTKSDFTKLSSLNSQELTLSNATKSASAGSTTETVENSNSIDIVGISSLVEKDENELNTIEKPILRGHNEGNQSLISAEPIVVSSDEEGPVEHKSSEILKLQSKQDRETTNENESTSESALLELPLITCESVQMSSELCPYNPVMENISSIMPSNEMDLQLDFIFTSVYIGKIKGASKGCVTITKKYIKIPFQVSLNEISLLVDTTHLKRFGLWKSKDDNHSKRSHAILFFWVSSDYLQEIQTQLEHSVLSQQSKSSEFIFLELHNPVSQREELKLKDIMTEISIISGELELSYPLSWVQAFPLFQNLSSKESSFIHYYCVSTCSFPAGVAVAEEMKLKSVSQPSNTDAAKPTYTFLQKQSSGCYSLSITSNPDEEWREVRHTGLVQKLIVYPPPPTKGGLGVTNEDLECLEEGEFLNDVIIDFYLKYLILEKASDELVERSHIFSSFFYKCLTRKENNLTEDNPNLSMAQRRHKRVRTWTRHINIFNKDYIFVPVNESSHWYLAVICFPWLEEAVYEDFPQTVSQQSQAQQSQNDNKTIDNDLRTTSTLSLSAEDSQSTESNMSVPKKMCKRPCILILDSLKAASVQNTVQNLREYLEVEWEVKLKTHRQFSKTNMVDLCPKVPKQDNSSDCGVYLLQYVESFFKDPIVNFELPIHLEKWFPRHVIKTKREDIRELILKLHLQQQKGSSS

Caspase-3 = target: T5, Caspase-3 (Homo sapiens, UniProt P42574); type: functional;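 further: Dose-response selectivity test against caspase-3 for candidate inhibitors of sentrin-specific proteases (SENPs)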
T5 sequence (P42574 whole entry): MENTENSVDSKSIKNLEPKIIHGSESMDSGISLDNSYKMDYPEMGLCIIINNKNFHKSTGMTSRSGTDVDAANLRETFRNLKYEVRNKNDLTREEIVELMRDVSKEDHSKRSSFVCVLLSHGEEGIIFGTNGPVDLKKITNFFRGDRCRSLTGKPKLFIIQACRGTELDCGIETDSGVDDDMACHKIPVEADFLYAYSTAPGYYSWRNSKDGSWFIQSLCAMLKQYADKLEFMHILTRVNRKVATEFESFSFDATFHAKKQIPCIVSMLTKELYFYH

[8] = target: T6, Sentrin-specific protease 6 (Homo sapiens, UniProt Q9GZR1); type: functional;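 further: Luminescence-based dose-response confirmatory assay of SENP6 inhibition, following up an ultra-high-throughput screen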
T6 sequence (Q9GZR1 whole entry): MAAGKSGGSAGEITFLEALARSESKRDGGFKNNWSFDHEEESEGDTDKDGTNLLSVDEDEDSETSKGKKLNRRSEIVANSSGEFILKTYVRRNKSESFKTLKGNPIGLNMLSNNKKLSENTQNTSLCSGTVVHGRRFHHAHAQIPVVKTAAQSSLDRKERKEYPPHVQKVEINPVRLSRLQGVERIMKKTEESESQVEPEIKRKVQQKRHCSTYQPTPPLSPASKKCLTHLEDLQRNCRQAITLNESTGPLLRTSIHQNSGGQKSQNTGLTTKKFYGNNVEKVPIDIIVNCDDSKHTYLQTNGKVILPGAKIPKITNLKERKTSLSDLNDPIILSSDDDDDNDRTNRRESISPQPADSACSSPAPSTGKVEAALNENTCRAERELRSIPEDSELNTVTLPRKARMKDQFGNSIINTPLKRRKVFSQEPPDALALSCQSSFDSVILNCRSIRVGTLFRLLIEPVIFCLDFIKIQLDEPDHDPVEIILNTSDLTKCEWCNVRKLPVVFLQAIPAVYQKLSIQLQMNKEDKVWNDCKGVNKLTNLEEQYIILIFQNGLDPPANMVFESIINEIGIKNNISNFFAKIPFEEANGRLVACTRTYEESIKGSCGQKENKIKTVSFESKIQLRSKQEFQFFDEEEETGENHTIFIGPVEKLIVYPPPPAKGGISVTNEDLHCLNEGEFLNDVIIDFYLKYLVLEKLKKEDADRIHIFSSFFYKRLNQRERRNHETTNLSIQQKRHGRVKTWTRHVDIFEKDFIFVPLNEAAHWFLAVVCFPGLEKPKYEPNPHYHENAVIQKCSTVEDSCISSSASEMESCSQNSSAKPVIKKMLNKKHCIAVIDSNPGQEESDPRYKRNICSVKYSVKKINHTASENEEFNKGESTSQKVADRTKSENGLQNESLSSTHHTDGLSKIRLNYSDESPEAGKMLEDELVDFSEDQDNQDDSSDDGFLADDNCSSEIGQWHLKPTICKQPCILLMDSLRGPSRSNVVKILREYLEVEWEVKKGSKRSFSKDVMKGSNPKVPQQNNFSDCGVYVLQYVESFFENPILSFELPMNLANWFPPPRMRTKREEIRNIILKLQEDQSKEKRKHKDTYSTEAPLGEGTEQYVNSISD

[9] = target: T7, Sentrin-specific protease 8 (Homo sapiens, UniProt Q96LD8); type: functional;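 further: luminescence read-out of SENP8 inhibition, dose-response confirmation following an ultra-high-throughput screen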
T7 sequence (Q96LD8 whole entry): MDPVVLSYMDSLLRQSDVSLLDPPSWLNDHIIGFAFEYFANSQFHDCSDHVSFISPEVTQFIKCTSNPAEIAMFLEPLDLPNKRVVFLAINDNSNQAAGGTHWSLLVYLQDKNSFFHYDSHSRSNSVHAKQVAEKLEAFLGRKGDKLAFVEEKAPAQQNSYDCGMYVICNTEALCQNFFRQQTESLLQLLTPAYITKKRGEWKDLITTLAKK

[10] = Luminescence Cell-Based Dose Retest to Confirm Inhibitors of Cancer Stem Cells. [Related pubchem assays (depositor defined):AID2717, AID2721]; type: functional; conditions: Homo sapiens
Beta Lactamase = Beta Lactamase (Pseudomonas aeruginosa, UniProt Q932Y6); test: beta-lactamase reporter inhibitor potency, dose response, artefact control for TLR9-MyD88 binding inhibitor project, BLA reporter cells, FRET fluorescence (AID 588341); type: cell-based;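 further: cell based assay in CHO-K1 cells stably expressing beta-lactamase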
Sequence of Beta Lactamase (Q932Y6 whole entry): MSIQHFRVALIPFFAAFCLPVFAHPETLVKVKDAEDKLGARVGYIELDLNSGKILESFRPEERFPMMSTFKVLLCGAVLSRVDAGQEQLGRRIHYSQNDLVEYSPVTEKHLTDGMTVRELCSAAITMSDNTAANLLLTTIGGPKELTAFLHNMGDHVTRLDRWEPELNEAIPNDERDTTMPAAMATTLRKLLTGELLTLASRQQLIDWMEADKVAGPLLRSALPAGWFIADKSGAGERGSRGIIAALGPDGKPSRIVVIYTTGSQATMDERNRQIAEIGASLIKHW

Genome polyprotein = Genome polyprotein (dengue virus type 2, UniProt P29990); test: Dengue-2 NS5 methyltransferase inhibitors, primary screen, biochemical, confirmation dose response (AID 588689); type: functional
Sequence of Genome polyprotein (P29990 2492-3391 limits assumed): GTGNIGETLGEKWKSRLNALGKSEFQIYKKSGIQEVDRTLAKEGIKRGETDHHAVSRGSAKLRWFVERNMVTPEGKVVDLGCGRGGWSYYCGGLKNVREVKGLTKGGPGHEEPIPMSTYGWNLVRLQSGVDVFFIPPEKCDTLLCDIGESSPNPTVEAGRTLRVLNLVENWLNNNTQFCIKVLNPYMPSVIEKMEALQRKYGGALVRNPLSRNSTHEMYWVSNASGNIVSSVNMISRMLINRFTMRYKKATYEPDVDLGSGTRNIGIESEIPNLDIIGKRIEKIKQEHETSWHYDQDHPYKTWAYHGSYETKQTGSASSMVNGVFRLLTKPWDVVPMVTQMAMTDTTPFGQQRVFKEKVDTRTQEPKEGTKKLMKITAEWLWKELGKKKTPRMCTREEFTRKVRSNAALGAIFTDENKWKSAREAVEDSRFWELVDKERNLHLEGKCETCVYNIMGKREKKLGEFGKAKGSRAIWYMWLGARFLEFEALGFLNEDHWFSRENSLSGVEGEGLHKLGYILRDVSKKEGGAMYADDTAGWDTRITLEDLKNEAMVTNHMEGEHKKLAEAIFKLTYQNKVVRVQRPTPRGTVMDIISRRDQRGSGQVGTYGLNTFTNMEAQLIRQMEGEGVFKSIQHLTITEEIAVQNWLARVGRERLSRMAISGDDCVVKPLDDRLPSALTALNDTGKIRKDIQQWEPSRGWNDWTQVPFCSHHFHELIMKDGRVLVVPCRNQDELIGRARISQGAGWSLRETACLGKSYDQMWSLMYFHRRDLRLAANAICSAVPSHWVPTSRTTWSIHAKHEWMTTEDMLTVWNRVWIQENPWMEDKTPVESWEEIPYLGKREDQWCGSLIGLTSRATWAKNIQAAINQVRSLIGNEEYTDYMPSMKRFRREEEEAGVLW

[11] = microbe, parasite or virus in culture; type: functional; conditions: Mycobacterium tuberculosis
CHO = test: cytotoxicity in TLR9-MyD88 CHO cells, dose response, cytotoxicity control for TLR9-MyD88 binding inhibitor project, cell-based, luminescence (AID 588339); type: functional, hamster; conditions: Cricetulus griseus;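 further: CHO cells stably coexpressing TLR9 and MyD88 fusions from primary screen; compound exposure lasted 48 hours before viability readout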

Sequence of Beta-galactosidase (Q8VNN2 whole entry): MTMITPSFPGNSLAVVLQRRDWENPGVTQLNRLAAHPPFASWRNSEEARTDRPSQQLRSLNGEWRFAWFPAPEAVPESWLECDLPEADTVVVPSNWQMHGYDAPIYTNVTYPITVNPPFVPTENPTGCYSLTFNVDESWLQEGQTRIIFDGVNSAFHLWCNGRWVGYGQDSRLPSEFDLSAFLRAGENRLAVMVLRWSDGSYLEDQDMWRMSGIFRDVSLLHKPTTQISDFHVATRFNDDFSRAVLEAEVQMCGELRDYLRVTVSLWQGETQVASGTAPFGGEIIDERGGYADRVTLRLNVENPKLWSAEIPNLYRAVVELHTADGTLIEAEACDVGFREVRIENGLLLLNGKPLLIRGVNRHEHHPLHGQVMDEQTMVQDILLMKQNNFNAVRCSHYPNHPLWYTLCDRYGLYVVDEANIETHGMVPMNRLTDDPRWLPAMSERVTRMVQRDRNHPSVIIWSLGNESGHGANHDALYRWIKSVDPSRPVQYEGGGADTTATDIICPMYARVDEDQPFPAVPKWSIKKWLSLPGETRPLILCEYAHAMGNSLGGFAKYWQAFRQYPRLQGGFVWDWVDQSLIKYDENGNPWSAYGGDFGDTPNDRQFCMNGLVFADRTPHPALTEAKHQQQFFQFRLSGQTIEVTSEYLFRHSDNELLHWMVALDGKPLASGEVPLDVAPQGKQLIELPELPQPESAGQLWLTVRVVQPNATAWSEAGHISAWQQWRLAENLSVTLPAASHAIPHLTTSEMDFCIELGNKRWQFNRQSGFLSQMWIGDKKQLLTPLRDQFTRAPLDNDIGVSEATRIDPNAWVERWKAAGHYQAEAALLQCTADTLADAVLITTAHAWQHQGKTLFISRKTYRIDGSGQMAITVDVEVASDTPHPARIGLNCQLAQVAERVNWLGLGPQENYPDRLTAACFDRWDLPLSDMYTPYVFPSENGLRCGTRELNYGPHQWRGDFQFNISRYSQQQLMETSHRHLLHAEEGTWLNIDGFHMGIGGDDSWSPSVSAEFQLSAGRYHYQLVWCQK

CCC[N+](CC#Cc1ccccc1)(CCC)CC(=O)c1ccc(Cl)cc1
EC50 (Beta-galactosidase): > 40 µM (inactive)
IC50 [1]: > 40 µM (not active)

O=C(O)c1cc(NN=C2c3ccccc3-c3ccccc32)ccc1Cl
EC50 [2]: 2.99 µM (active)
IC50 (Phospholipase A2): 9.27 µM (active)
IC50 (Cysteine protease ATG4B): 9.33 µM (active)

COc1ccccc1CNCC(O)Cn1c2ccccc2c2ccccc21 (stereo not given)
AC50 (A-375): 19.2 µM (active)
AC50 [3]: 18.7 µM (active)
EC50 [4]: 8.09 µM (active)
EC50 [5]: 8.31 µM (active)
EC50 [6]: 12.2 µM (inactive)
AC50 (INS1): 11.2 µM (active)

O=C(Nc1ccc(Br)cn1)c1ccc(Br)s1
IC50 [7]: 6.53 µM (active)
IC50 (Caspase-3): 20.4 µM (active)
IC50 [8]: > 100 µM (inactive)
IC50 [9]: > 100 µM (inactive)

O=C(CSc1nnc(COc2ccc(Cl)cc2)n1Cc1ccco1)c1ccccc1F
IC50 (Phospholipase A2): 55.7 µM (inactive)
IC50 (Cysteine protease ATG4B): 2.36 µM (active)

N#Cc1c([N+](=O)[O-])cc([N+](=O)[O-])cc1S(=O)(=O)Cc1ccccc1
AC50 [10]: 1.61 µM (active)
IC50 (Beta Lactamase): 12.1 µM (inactive)
IC50 (Genome polyprotein): > 100 µM (active)
CC50 [11]: > 40 µM (active)
AC50 (INS1): 3.59 µM (active)
IC50 (CHO): 1.6 µM (active)

O=C1N=C(NS(=O)(=O)Cc2ccccc2)S/C1=C/c1cc([N+](=O)[O-])ccc1O
EC50 (Beta-galactosidase): > 40 µM (inactive)
IC50 [1]: 39.9 µM (not active)
